The values below come from patent US20240002350A1, “PROTEIN AND LIPID THERAPEUTIC TARGETS” (UNIVERSITY OF PITTSBURGH-OF THE COMMONWEALTH SYSTEM OF …, priority 2020, published 2024).

The first assay deals with PND17 rats. As to the kind of experiment: Controlled cortical impact (CCI) TBI model in PND17 rats. Type of assay: in vivo, rat. The following applies: 50 mg/kg i.p. 15 min after CCI. On the procedure:
(§1) Time course studies (0, 4, 8, 24 and 72 h) of TBI-induced changes in i) PE oxidation (oxidative lipidomics); ii) expression and activity of 15LOX, PEBP1, ACSL4, LPCAT3, iPLA2β and GPX4 (western blot); iii) formation of 15LOX/PEBP1 complexes (dual object recognition); and iv) GSH levels (fluorescent assay) will be performed as follows. An established model of in vitro TBI, severe mechanical stretch injury in primary cortical neurons, can be used. In brief, cortical neurons are cultured on 0.05% poly-D-lysine hydrobromide coated silicone substrate wells, and subjected to a computer controlled quantifiable mechanical insult by displacing the silicone substrate over a hollowed platform. In vivo TBI is induced by severe CCI (6-mm impactor tip, velocity of ±0.2 m/secs, deformation depth of 2.5 mm, impact duration of 50 msecs) to left parietal cortex in male and female PND 17 rats. To maximize rigor and reproducibility, animals are assigned to either sham (anesthesia and craniotomy) or CCI groups by block randomization. To ensure appropriate sample size for robustness, power analyses are performed in each experimental context. A sample size of 5 is preferred to detect a 25% difference in PE-OOH between CCI and control based on standard deviation observed in the experiments with an alpha of 0.05 and power of 0.80. Group assignments are blinded to the investigators who perform biochemical and histological endpoints. Statistical differences are analyzed using one-way ANOVA with post-hoc comparisons between groups if overall p<0.05 as appropriate. To address biological variability, both sexes are included.
Histological outcome assessment. Brains are quantitatively analyzed for total number of specific cell types and lesion volume using unbiased stereology as described. Diagnostic of ferroptosis in vivo are: 1) accumulation of doubly and triply oxygenated AA-PE species; 2) increased ACSL4; 3) decreased GPX4 activity or deficiency of GSH; 4) increased activity and expression of 15LOX; and 5) high levels of 15LOX-PEBP1 co-localization detectable by dual object recognition. […] TUNEL staining is used to quantify cell death. TUNEL is commonly used to detect apoptotic cells. However, cells undergoing other types of regulated death, including ferroptosis, are also TUNEL positive. In order to determine the apoptotic cell death, staining with cleaved caspase-3 antibody is performed.
Neurocognitive function is assessed by novel object recognition (NOR) and MWM (Morris Water Maze) tests. For NOR testing, rat is placed in a small enclosure with two similar objects and allowed to explore for a 35 min habituation phase. […] Percent time exploring original vs. novel object is recorded (2 min max). […] Visible platform performance and memory retention in a single probe trial on d17 are assessed. […]
In the case of `O=c1cc(-c2ccccc2)oc2cc(O)c(O)c(O)c12` [baicalein], the AA-PE oxidation result is on record as “decreased”, the “functional deficits in MWM task” value is on record as “attenuated” and the “hippocampal TUNEL positivity” value is on record as “attenuated”.

The assay is the same for the next values; noted with them: i.c.v. administration after CCI, 24 h post-CCI.
For `CCC/C=C/C/C=C/C=C/C=N/NN=O` [Triacsin C], the “neurodegeneration assessed by FJB positivity” value was “attenuated neurodegeneration”.

The next assay has as its system neurons. Nature of the assay: Severe mechanical stretch injury in neurons. Format: cell-based, rat. The settings on record: 3-4 psi; Fer-1 0.4 μM, Triacsin C 10 μM, baicalein 5 μM. The method, then:
Mean+SD, N=4/group, *p<0.05 vs 0 h. […] Mean±SD, N=3-4/group, *p<0.05 vs control, #p<0.05 vs vehicle. […] Mean+SD, N=4/group, *p<0.05 vs vehicle.
as §1
`CCOC(=O)c1ccc(NC2CCCCC2)c(N)c1` [Fer-1]: the “cell death after severe mechanical stretch injury” value (“cell death” below) is reported as “rescued”.

Regarding `CCC/C=C/C/C=C/C=C/C=N/NN=O` [Triacsin C], the “cell death” value is “rescued”.

For the compound `O=c1cc(-c2ccccc2)oc2cc(O)c(O)c(O)c12` [baicalein], the “cell death” value is recorded as “rescued”.

The subject of the next assay is 15LOX/PEBP1. As to the kind of experiment: Potency of 15LOX/PEBP1 inhibitors with anti-ferroptotic effect (Table 1). Format: cell-based.
Details: not given
From the text:
Development and testing of new compounds that inhibit 15LOX/PEBP1 complex activity. A combination of computational and experimental studies are used. […] Computer modeling considers specific features of organization of 15LOX/PEBP1 complexes and positioning of AA-PE as well as regio-specific oxygenation of AA-residues at 15th carbon. […] It has been shown that: i) binding interface of 15LOX in 15LOX/PEBP1 complex includes a helix on 15LOX (α2) and kinase binding epitope (D144, H145, R146) on PEBP1 (FIG. 8); and ii) interfacial interactions play a pivotal role in allosterically altering conformational dynamics of 15LOX in complex, and its substrate specificity. Analysis of change in access to catalytic site upon PEBP1 binding, using elastic network models indicates needed sites at 15LOX/PEBP1 binding interface. Dynamics simulations are also performed, for 15LOX alone and 15LOX/PEBP1 complex. An effective inhibitor, NCG-01, with in vivo activity has been indicated. Several other 15LOX/PEBP1 inhibitors with anti-ferroptotic effect (FIG. 9) have been identified. To test the effectiveness of compounds identified from the computational screen, RSL3 and mechanical stretch models with LDH and PI assays as a primary outcome are performed. The compounds that inhibit cell death by at least 50% are then evaluated for their effects on AA-PE and AA oxidation by 15LOX/PEBP1 complex and 15LOX alone, respectively, by LC-MS. Evaluation of the effect of compounds in suppressing AA-PE-OOH formation in cells upon proferroptotic stimuli is also performed.
In the case of `Fc1cccc(-n2cc(-c3ccccc3)nc2SCc2ccc(C(F)(F)F)cc2F)c1` [Compound 48, 2-((2-fluoro-4-(trifluoromethyl)benzyl)thio)-1-(3-fluorophenyl)-4-phenyl-1H-imidazole], the Potency result was “+ (+ > 1 μM)”.

As to `CC(=O)Nc1ccc(CSc2nc(-c3ccccc3)cn2-c2cccc(F)c2)cc1` [Compound 49, N-(4-(((1-(3-fluorophenyl)-4-phenyl-1H-imidazol-2-yl)thio)methyl)phenyl)acetamide], the Potency entry is reported as “+ (+ > 1 μM)”.

For the compound `NC(=O)c1ccc(CSc2nc(-c3ccccc3)cn2-c2cccc(F)c2)cc1` [Compound 50, 4-(((1-(3-fluorophenyl)-4-phenyl-1H-imidazol-2-yl)thio)methyl)benzamide], the Potency result is recorded as “+ (+ > 1 μM)”.

Consider `Fc1cccc(-n2cc(-c3ccccc3)nc2SCc2ccc(OC(F)F)cc2)c1` [Compound 51, 2-((4-(difluoromethoxy)benzyl)thio)-1-(3-fluorophenyl)-4-phenyl-1H-imidazole], for which the Potency result is recorded as “+ (+ > 1 μM)”.

Regarding `Fc1cccc(-n2cc(-c3ccccc3)nc2SCc2ccc(C(F)F)cc2)c1` [Compound 52, 2-((4-(difluoromethyl)benzyl)thio)-1-(3-fluorophenyl)-4-phenyl-1H-imidazole], the Potency result was “+ (+ > 1 μM)”.

Turning to `CC(C)(C)OC(=O)Nc1ccc(CSc2nc(-c3ccccc3)cn2-c2cccc(F)c2)cc1` [Compound 53, tert-butyl (4-(((1-(3-fluorophenyl)-4-phenyl-1H-imidazol-2-yl)thio)methyl)phenyl)carbamate], the Potency result is given as “+ (+ > 1 μM)”.

As to `CC(Sc1nc(-c2ccccc2)cn1-c1cccc(F)c1)c1ccc(C(F)(F)F)cc1` (stereo not shown) [Compound 54, 1-(3-fluorophenyl)-4-phenyl-2-((1-(4-(trifluoromethyl)phenyl)ethyl)thio)-1H-imidazole], the Potency result is “+ (+ > 1 μM)”.

In the case of `N#Cc1ccc(CSc2nc(-c3ccccc3)cn2-c2cccc(F)c2)cc1` [Compound 55, 4-(((1-(3-fluorophenyl)-4-phenyl-1H-imidazol-2-yl)thio)methyl)benzonitrile], the Potency result is “+ (+ > 1 μM)”.

As for `N#Cc1ccc(CNc2nc(-c3ccccc3)cn2-c2cccc(F)c2)cc1` [Compound 56, 4-(((1-(3-fluorophenyl)-4-phenyl-1H-imidazol-2-yl)amino)methyl)benzonitrile], the Potency entry is listed as “++ (++ = 101-1000 nM)”.

`Cc1cccc(CNc2nc(-c3ccccc3)cn2-c2cccc(F)c2)c1` [Compound 57, 1-(3-fluorophenyl)-N-(3-methylbenzyl)-4-phenyl-1H-imidazol-2-amine]: the Potency result was “++ (++ = 101-1000 nM)”.

`Fc1cccc(-n2cc(-c3ccccc3)nc2NCc2cccc(C(F)(F)F)c2F)c1` [Compound 58, N-(2-fluoro-3-(trifluoromethyl)benzyl)-1-(3-fluorophenyl)-4-phenyl-1H-imidazol-2-amine]: the Potency result is recorded as “++ (++ = 101-1000 nM)”.

As for `Fc1cccc(-n2cc(-c3ccccc3)nc2NCc2ccc(Cl)cc2)c1` [Compound 59, N-(4-chlorobenzyl)-1-(3-fluorophenyl)-4-phenyl-1H-imidazol-2-amine], the Potency entry is “++ (++ = 101-1000 nM)”.

For `Fc1cccc(-n2cc(-c3ccccc3)nc2NCc2ccccc2)c1` [Compound 61, N-benzyl-1-(3-fluorophenyl)-4-phenyl-1H-imidazol-2-amine], the Potency result is “++ (++ = 101-1000 nM)”.

For the compound `COc1cccc(CNc2nc(-c3ccccc3)cn2-c2cccc(F)c2)c1` [Compound 62, 1-(3-fluorophenyl)-N-(3-methoxybenzyl)-4-phenyl-1H-imidazol-2-amine], the Potency entry is listed as “++ (++ = 101-1000 nM)”.

`Fc1cccc(-n2cc(-c3ccccc3)nc2NCc2cccc(C(F)(F)F)c2)c1` [Compound 63, 1-(3-fluorophenyl)-4-phenyl-N-(3-(trifluoromethyl)benzyl)-1H-imidazol-2-amine]: the Potency entry is listed as “++ (++ = 101-1000 nM)”.

In the case of `Fc1cccc(-n2cc(-c3ccccc3)nc2NCc2ccc(F)c(F)c2)c1` [Compound 64, N-(3,4-difluorobenzyl)-1-(3-fluorophenyl)-4-phenyl-1H-imidazol-2-amine], the Potency entry is recorded as “++ (++ = 101-1000 nM)”.

Turning to `Fc1cccc(-n2cc(-c3ccc(Br)cc3)nc2SCc2ccc(C3(C(F)(F)F)N=N3)cc2)c1` [Compound 65, 4-(4-bromophenyl)-1-(3-fluorophenyl)-2-((4-(3-(trifluoromethyl)-3H-diazirin-3-yl)benzyl)thio)-1H-imidazole], the Potency entry was “+ (+ > 1 μM)”.

On to `Fc1cccc(-n2cc(-c3ccccc3)nc2NCc2ccc(C(F)(F)F)c(Br)c2)c1` [Compound 66, N-(3-bromo-4-(trifluoromethyl)benzyl)-1-(3-fluorophenyl)-4-phenyl-1H-imidazol-2-amine], for which the Potency result was “++ (++ = 101-1000 nM)”.

Take `COc1cc(CNc2nc(-c3ccccc3)cn2-c2cccc(F)c2)ccc1C(F)(F)F` [Compound 67, 1-(3-fluorophenyl)-N-(3-methoxy-4-(trifluoromethyl)benzyl)-4-phenyl-1H-imidazol-2-amine]: the Potency result is “++ (++ = 101-1000 nM)”.

`Fc1cccc(-n2cc(-c3ccccc3)nc2NCc2ccc(C(F)(F)F)c(Cl)c2)c1` [Compound 68, N-(3-chloro-4-(trifluoromethyl)benzyl)-1-(3-fluorophenyl)-4-phenyl-1H-imidazol-2-amine]: the Potency entry is “++ (++ = 101-1000 nM)”.

On to `Cc1cc(CNc2nc(-c3ccccc3)cn2-c2cccc(F)c2)ccc1C(F)(F)F` [Compound 69, 1-(3-fluorophenyl)-N-(3-methyl-4-(trifluoromethyl)benzyl)-4-phenyl-1H-imidazol-2-amine], for which the Potency result is given as “++ (++ = 101-1000 nM)”.
